The values that follow come from BindingDB's records for patent US20250230147 (Genentech, 2025).

What is called IC50 is the concentration that gives 50% inhibition. Read a low IC50 as inhibition by little substance.

For test [1], the target named is E3 ubiquitin-protein ligase CBL-B (Homo sapiens, UniProt Q13191). The experiment in a line: Cbl-b and c-Cbl SPR Assay.
Test [2] concerns the target E3 ubiquitin-protein ligase CBL (Homo sapiens, UniProt P22681). The test can be described thus: Cbl-b and c-Cbl SPR Assay.

Chain of E3 ubiquitin-protein ligase CBL-B (Q13191 whole entry): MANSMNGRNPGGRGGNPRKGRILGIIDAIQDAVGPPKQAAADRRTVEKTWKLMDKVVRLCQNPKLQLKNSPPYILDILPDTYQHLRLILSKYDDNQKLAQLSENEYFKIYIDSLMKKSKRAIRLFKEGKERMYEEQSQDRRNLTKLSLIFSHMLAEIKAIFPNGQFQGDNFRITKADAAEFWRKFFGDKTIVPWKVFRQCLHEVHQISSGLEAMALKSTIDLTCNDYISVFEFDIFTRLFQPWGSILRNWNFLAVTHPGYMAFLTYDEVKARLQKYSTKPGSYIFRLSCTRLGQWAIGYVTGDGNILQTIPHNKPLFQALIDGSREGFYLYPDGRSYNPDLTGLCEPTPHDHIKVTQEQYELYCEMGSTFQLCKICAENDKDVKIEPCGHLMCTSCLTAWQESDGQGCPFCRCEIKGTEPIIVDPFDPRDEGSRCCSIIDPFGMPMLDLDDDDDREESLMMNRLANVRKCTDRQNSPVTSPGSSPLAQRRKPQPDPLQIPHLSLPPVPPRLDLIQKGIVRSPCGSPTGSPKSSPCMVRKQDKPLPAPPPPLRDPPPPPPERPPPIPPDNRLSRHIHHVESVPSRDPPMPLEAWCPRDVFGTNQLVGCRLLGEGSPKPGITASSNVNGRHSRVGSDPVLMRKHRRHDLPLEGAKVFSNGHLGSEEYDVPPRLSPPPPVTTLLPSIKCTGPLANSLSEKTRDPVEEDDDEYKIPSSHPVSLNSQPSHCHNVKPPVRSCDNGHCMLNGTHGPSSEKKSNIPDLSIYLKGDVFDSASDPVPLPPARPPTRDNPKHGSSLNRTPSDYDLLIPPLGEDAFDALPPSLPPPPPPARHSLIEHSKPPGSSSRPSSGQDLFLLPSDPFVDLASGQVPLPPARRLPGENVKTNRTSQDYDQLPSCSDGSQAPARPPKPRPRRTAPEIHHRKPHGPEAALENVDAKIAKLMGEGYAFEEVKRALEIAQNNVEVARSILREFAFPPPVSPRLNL

As to `Cn1cnnc1[C@H](F)[C@@](C)(F)c1cccc(N2Cc3c(cc(CN4CCC5(CC5)C4)cc3C(F)(F)F)C2=O)c1` [US20250230147, Compound 128], the values for the IC50 in test [1] and in test [2] were 480 nM and 1600 nM, respectively.
Taken in the same sequence, the figures for `Cn1cnnc1[C@H](F)C1(c2cccc(N3Cc4c(Cl)cc(CNC5(C)CCC5)cc4C3=O)c2)COC1` [US20250230147, Compound 470] were 12 nM and 8.5 nM.
For `Cn1cnnc1[C@@H](F)[C@](C)(F)c1cccc(N2Cc3c(cc(CN4CCC5(CC5)C4)cc3C(F)(F)F)C2=O)c1` [US20250230147, Compound 129] the same measures were 130 nM and 460 nM.
Taken in the same sequence, the figures for `Cn1cnnc1[C@@H](F)[C@@](C)(F)c1cccc(N2Cc3c(cc(CN4CCC5(CC5)C4)cc3C(F)(F)F)C2=O)c1` [US20250230147, Compound 130] were 4000 nM and 13000 nM.
As to `Cn1cnnc1[C@H](F)[C@](C)(F)c1cccc(N2Cc3c(cc(CN4CCC5(CC5)C4)cc3C(F)(F)F)C2=O)c1` [US20250230147, Compound 127], the IC50 in test [1] was found to be 77 nM; in test [2] it was 170 nM.
